Laboratory results: patent publication US9606108B2, “Deformable platforms for biological assays” (President and Fellows of Harvard College, priority 2011, dated 2017)

System: human airway smooth muscle (HASM) cells
Assay: High-throughput traction microscopy (HTTM): RMS traction of HASM cell monolayers on gel in 96-well plates, before and after adding drug
Type: cell-based
Conditions: for normalized traction (RMS traction after adding drug/RMS traction before adding drug): control drugs on zero-hit drug plate, FIG. 14; for change in cellular contraction (RMS traction) with increasing doses: FIG. 13, control drugs
Procedure: Acrylamide gels with 1.8 kPa stiffness and 200-μm thickness were made in 96-well plates, fluorescent markers were coated in a single layer (0.2 μm) onto gel surfaces, and the gel plates were mounted on a fluorescent microscope with motorized stage. On each gel, HASM cells from a single donor were cultured to near confluence. Each well was seeded with 20,000 cells and was serum deprived for 2 days. FIG. 9 illustrates an example layout of a multiwell plate. Imaging of the fluorescent markers included 10× magnification, at 37° C. Three rounds of imaging was performed per plate. For each imaging, two florescent images and one phase image was acquired. Since a common problem for circular shape dishes is rotation of wells, the multi-well plate is optionally a rectangular shape, so that one can easily find the same location in each well. Images of fluorescent markers in each well are taken before cell seeding. In addition, one can store the exact z-position of best sensor focus on each well. It is known that the multi-well plate may not be perfectly flat (e.g., there can be sagging in the middle of the plate). In addition, small changes in sensor depth focus can jeopardize image quality and in turn, traction calculation. Therefore, a prescanning step can aid in screening. After prescanning, wells are seeded with cells and a regular cell culture protocol can be followed. In example 3, a baseline-scanning typically takes fifteen minutes. Drugs can be added and the plates can be incubated for a certain time (e.g., in example 3, incubation occurred over a period of one hour). After incubation, a drug-scan can occur. Thus, three images (prescan, baseline-scan, and drug-scan) are acquired. FIG. 7 is a series of images illustrating a set of three example acquired images. At 700 is a fluorescent image of a bottom bead (0.5 μm). At 710 is a phase contrast image. At 720 is a fluorescent image of a yellow/green bead 0.2 μm. Root mean square values of the absolute traction forces were calculated before and after adding drugs. FIG. 10 illustrates an example process flow diagram 1000 for high-throughput screening using cellular contraction. For example, using the process illustrated in FIG. 10 and a 96 well plate, each scan takes approximately 15 minutes. Since each plate goes through a baseline scan, drug incubation (60 minutes), and a drug scan, it takes approximately 90 minutes per plate. Drug-induced changes in traction provide a simple and physiologically relevant index to identify hits, i.e., those molecules that appreciably reduce cellular traction forces. FIG. 8 is a series of images illustrating six absolute cell traction maps. At 800-850 are cell traction maps for 0.5% Dimethylsulfoxide (DMSO), 1% Fetal Bovine Serum (FBS), 10 μM Y27632, both before and after adding drugs. Y27632 is an inhibitor of the Rho-associated protein kinase, which is known to reduce cellular contraction. […] The treatment of 1% FBS increased RMS traction by 77% from the baseline. The treatment of 10 uM Y-27632 decreased RMS traction by 71% from the baseline. The ratio of RMS tractions of before and after drug treatment (or, normalized contraction) is an index to evaluate the effects of drugs in both stiffening and softening responses.

SMILES	measured change in RMS traction (ratio of RMS tractions before and after drug treatment, normalized contraction) (10 μM Y27632, FIG. 8)	decrease of RMS traction from the baseline (10 uM Y-27632) [%]	normalized traction (RMS traction after adding drug/RMS traction before adding drug)	change in cellular contraction (RMS traction) with increasing doses	decrease in cellular contraction (increasing doses of isoproterenol, FIG. 13)	normalized traction (iso 50 μM, FIG. 12)
C[C@@H](N)[C@H]1CC[C@H](C(=O)Nc2ccncc2)CC1 [Y27632]	0.29	71	decreased traction	decreasing cellular contraction in a dose dependent manner	–	–
CC(C)NCC(O)c1ccc(O)c(O)c1 (centres unmarked) [isoproterenol]	–	–	decreased traction	did not appear dose dependent	more than 50%	below 0.5
